This passage reports EC50 results from patent US20110319379A1, “Substituted Indazole Amides And Their Use As Glucokinase Activators” (priority 2009, published 2011).

In one experiment the target is T1, recombinant human glucokinase (Homo sapiens, UniProt P35557).
T1 construct: Full-length glucokinase (beta cell isoform) was His-tagged at the N-terminus and purified by a Ni column followed by size exclusion chromatography as described above; His tag; made in house; host or cells: E. coli BL21(DE3), vector pBCGK
T1 sequence (P35557 1-465): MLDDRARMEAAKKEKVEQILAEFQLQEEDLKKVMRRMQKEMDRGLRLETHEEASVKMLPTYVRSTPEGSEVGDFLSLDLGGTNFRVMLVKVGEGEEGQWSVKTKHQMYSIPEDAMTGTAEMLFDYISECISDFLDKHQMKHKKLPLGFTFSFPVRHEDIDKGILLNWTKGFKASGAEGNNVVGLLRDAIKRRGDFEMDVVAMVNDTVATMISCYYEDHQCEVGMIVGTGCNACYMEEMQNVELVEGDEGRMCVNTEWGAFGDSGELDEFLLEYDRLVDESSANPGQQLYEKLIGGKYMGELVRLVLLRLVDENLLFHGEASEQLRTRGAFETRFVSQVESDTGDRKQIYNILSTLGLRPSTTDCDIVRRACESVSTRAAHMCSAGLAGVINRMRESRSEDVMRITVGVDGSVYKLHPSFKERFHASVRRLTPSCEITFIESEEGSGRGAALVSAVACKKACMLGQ
Briefly: Assay 2: Evaluating Activator Potency in a Matrix Assay at Multiple Glucose Concentrations. The experiment is classed as biochemical. The following applies: Assay 2 matrix assay; 16 glucose concentrations; intrinsic EC50 = concentration affording a 50% reduction in the enzyme's Km (for glucose); read-out: Glucokinase EC50. On the procedure:
Representative compounds of this invention were evaluated in biochemical assays (Assay 1 or Assay 2) to characterize their glucokinase activation properties.
The recombinant human glucokinase protein utilized in both assays was prepared and purified as described below.
BL21(DE3) cells (Invitrogen Corporation, Carlsbad, Calif.) containing pBCGK (C or N H is) vector were grown at 37° C. (in 2XYT) until the OD600 was between 0.6-1.0. Expression was induced by addition of isopropylthiogalactoside to a final concentration of 0.1-0.2 mM to the cells which were then incubated overnight at 23° C. The next day, cells were harvested via centrifugation at 5000 rpm for 15 minutes at 4° C. The cell pellet was stored at −80° C. for future purification.
Beta Cell Glucokinase His-Taq Purification Conditions: A Ni-NTA (Quigan, Germantown, Md.) column (15-50 mL) was used for separation. Two buffers were prepared, 1) a lysis/nickel equilibration and wash buffer and 2) a nickel elution buffer. The lysis/equilibration/wash buffer was prepared as such: 25 mM HEPES buffer at pH 7.5, 250 mM NaCl, 20 mM imidazole, and 14 mM β-mercaptoethanol as final concentrations. The elution buffer was prepared as such: 25 mM HEPES at pH 7.5, 250 mM NaCl, 400 mM imidazole, and 14 mM β-mercaptoethanol as final concentrations. The buffers were each filtered with a 0.22 μm filter prior to use. The cell pellet (1 L culture) was resuspended in 300 mL of the lysis/equilibration buffer. The cells were then lysed (3 times) with a Microfluidics Model 110Y microfluidizer (Microfluidics Corporation, Newton, Mass.). The slurry was centrifuged with a Beckman Coulter Model LE-80K ultracentrifuge (Beckman Coulter, Fullerton, Calif.) at 40,000 rpm for 45 minutes at 4° C. The supernatant was transferred to a chilled flask. A volume of 20 μl was saved for gel analysis. A Pharmacia AKTA (GMI, Inc., Ramsey, Minn.) purification system was used for separation. The prime lines were purged with lysis/equilibration buffer. The Ni-NTA column was equilibrated with 200 mL of the lysis/equilibration buffer at a flow rate of 5 mL/minute. The supernantant was loaded over the column at 4 mL/minute and the flow-through was collected in a flask. The unbound proteins were washed with lysis/equilibration buffer at a flow rate of 5 mL/minute until the ultraviolet reaches baseline. The protein was then eluted from the column with the imidazole elution buffer via imidazole gradient 20 mM to 400 mM over 320 mL. The column was then stripped of any additional protein with 80 mL of the elution buffer. The elution fractions were each 8 mL, for a total yield of 50 samples. Fractions were analyzed by sodium dodecyl sulfate polyacrylamide (SDS-PAGE) and the fractions containing protein of interest were pooled and concentrated to 10 mL using ultrafiltration cell with a 10,000 molecular weight cut-off (MWCO) Millipore membrane (Sigma-Aldrich, St. Louis, Mo.) under nitrogen gas (60 psi). Protein was further purified by size exclusion chromatography (SEC) using a […] (320 mL) (Amersham Pharmacia, Uppsala, Sweden). SEC was equilibrated with 450 mL sizing buffer containing 25 mM HEPES pH 7.0, 50 mM NaCl, and 5 mM dithiothreitol. Concentrated protein was then loaded over SEC and elution with 400 mL sizing buffer was performed overnight at 0.5 mL/minute. The elution fractions were 5 mL each. The fractions were analyzed by SDS-PAGE and protein containing fractions were pooled. Concentration was measured using Bradford Assay/BSA Standard. Purified protein was stored in small aliquots at −80° C.
Assay 2: Evaluating Activator Potency in a Matrix Assay at Multiple Glucose Concentrations
Utilizing an adaptation of this method, representative compounds of the current invention were evaluated at 22 different concentrations and 16 different glucose concentrations in a coupled enzyme assay system that detects glucokinase activity via depletion of β-NADH.
For orientation: EC50 means the concentration giving half of the maximal effect. As to `CCn1cc2c(Oc3cnc(C(=O)N4CCC4)cn3)cc(C(=O)Nc3cnn(C)n3)cc2n1` [Example 1BX, 4-(5-(azetidine-1-carbonyl)pyrazin-2-yloxy)-2-ethyl-N-(2-methyl-2H-1,2,3-triazol-4-yl)-2H-indazole-6-carboxamide], the EC50 stood at 15100 nM. The same measure, in the same setting: for `CCn1ccc(NC(=O)c2cc(Oc3ccc(S(C)(=O)=O)cc3)c3cn(CC)nc3c2)n1` [Example 1BM, 2-ethyl-N-(1-ethyl-1H-pyrazol-3-yl)-4-[4-(methylsulfonyl)phenoxy]-2H-indazole-6-carboxamide] the value was 1900 nM.

On to `CC(C)n1cc2c(Oc3cnc(C(=O)N4CCC4)cn3)cc(C(=O)Nc3ccn(C)n3)cc2n1` [Example 1BT, 4-(5-(azetidine-1-carbonyl)pyrazin-2-yloxy)-2-isopropyl-N-(1-methyl-1H-pyrazol-3-yl)-2H-indazole-6-carboxamide], for which the EC50 amounted to 979 nM.

`Cc1cnc(NC(=O)c2cc(Oc3ccc(S(C)(=O)=O)nc3)c3cn(C)nc3c2)cn1` [Example 1AQ, 2-methyl-N-(5-methylpyrazin-2-yl)-4-{[6-(methylsulfonyl)pyridin-3-yl]oxy}-2H-indazole-6-carboxamide]: the EC50 is 5370 nM. The same measure, in the same setting: for `CCn1cc2c(Oc3ccc(S(N)(=O)=O)cc3)cc(C(=O)Nc3cnc(OC)cn3)cc2n1` [Example 1CS, 4-[4-(aminosulfonyl)phenoxy]-2-ethyl-N-(5-methoxypyrazin-2-yl)-2H-indazole-6-carboxamide] the value was 418 nM. Same read-out and setting: for `CCn1cc2c(Oc3cnc(C(=O)N(C)C)cn3)cc(C(=O)Nc3cnn(C)n3)cc2n1` [Example 1BZ, 4-(5-(dimethylcarbamoyl)pyrazin-2-yloxy)-2-ethyl-N-(2-methyl-2H-1,2,3-triazol-4-yl)-2H-indazole-6-carboxamide] the value was 25100 nM; for `Cn1ccc(NC(=O)c2cc(Oc3ccc(S(C)(=O)=O)nc3)c3cn(C)nc3c2)n1` [Example 1AO, 2-methyl-N-(1-methyl-1H-pyrazol-3-yl)-4-{[6-(methylsulfonyl)pyridin-3-yl]oxy}-2H-indazole-6-carboxamide], 1290 nM. With `CCn1cc2c(Oc3ccc(S(N)(=O)=O)cc3)cc(C(=O)Nc3ccn(C)n3)cc2n1` [Example 1CQ, 4-[4-(aminosulfonyl)phenoxy]-2-ethyl-N-(1-methyl-1H-pyrazol-3-yl)-2H-indazole-6-carboxamide], the EC50 amounted to 2880 nM. Regarding `Cn1cc2c(Oc3cnc(C(=O)N4CCCC4)cn3)cc(C(=O)Nc3cnn(C)n3)cc2n1` [Example 1BW, 2-methyl-N-(2-methyl-2H-1,2,3-triazol-4-yl)-4-(5-(pyrrolidine-1-carbonyl)pyrazin-2-yloxy)-2H-indazole-6-carboxamide], the concentration giving a half-maximal response (EC50) was determined as 4640 nM. Still for that read-out and setting: for `Cn1cc(NC(=O)c2cc(Oc3ccc(S(C)(=O)=O)cc3)c3cn(C)nc3c2)nn1` [Example 1CJ, 2-methyl-4-[4-(methylsulfonyl)phenoxy]-N-(1-methyl-1H-1,2,3-triazol-4-yl)-2H-indazole-6-carboxamide] the value was 282 nM.

For the compound `Cc1cnc(NC(=O)c2cc(Oc3ccc(S(=O)(=O)N(C)C)nc3)c3cn(C)nc3c2)cn1` [Example 1AL, 4-({6-[(dimethylamino)sulfonyl]pyridin-3-yl}oxy)-2-methyl-N-(5-methylpyrazin-2-yl)-2H-indazole-6-carboxamide], the EC50 is 3170 nM. `CC(C)n1cc2c(Oc3cnc(C(=O)N(C)C)cn3)cc(C(=O)Nc3ccn(C)n3)cc2n1` [Example 1BV, 4-(5-(dimethylcarbamoyl)pyrazin-2-yloxy)-2-isopropyl-N-(1-methyl-1H-pyrazol-3-yl)-2H-indazole-6-carboxamide]: the EC50 came to 1590 nM. Still for that read-out and setting: for `CCn1cc2c(Oc3ccc(S(N)(=O)=O)cc3)cc(C(=O)Nc3cnc(C)cn3)cc2n1` [Example 1CR, 4-[4-(aminosulfonyl)phenoxy]-2-ethyl-N-(5-methylpyrazin-2-yl)-2H-indazole-6-carboxamide] the value was 586 nM. Consider `CCn1cc2c(Oc3ccc(S(N)(=O)=O)cc3)cc(C(=O)Nc3ccc(F)cn3)cc2n1` [Example 1CT, 4-[4-(aminosulfonyl)phenoxy]-2-ethyl-N-(5-fluoropyridin-2-yl)-2H-indazole-6-carboxamide], for which the EC50 was 1820 nM. On the same count and under the same terms, for `CNS(=O)(=O)c1ccc(Oc2cc(C(=O)Nc3cnc(C)cn3)cc3nn(C)cc23)cc1` [Example 1AK, 4-{4-[(methylamino)sulfonyl]phenoxy}-2-methyl-N-(5-methylpyrazin-2-yl)-2H-indazole-6-carboxamide] the value was 878 nM. Turning to `CC(=O)N(C)c1cnc(Oc2cc(C(=O)Nc3ccc(C)cn3)cc3nn(C)cc23)cn1` [Example 1CN, 2-methyl-4-(5-(N-methylacetamido)pyrazin-2-yloxy)-N-(5-methylpyridin-2-yl)-2H-indazole-6-carboxamide], the 50% effective concentration (EC50) was 2320 nM.

As for `CCn1cc2c(Oc3cnc(C(=O)N(C)C)cn3)cc(C(=O)Nc3ccn(C)n3)cc2n1` [Example 1BU, 4-(5-(dimethylcarbamoyl)pyrazin-2-yloxy)-2-ethyl-N-(1-methyl-1H-pyrazol-3-yl)-2H-indazole-6-carboxamide], the EC50 amounted to 1050 nM. For `Cc1ccc(NC(=O)c2cc(Oc3ccc4c(c3)CCS4(=O)=O)c3cn(C)nc3c2)nc1` [Example 1AV, 4-[(1,1-dioxido-2,3-dihydro-1-benzothien-5-yl)oxy]-2-methyl-N-(5-methylpyridin-2-yl)-2H-indazole-6-carboxamide], the EC50 was found to be 817 nM.

With `CCc1cnc(NC(=O)c2cc(Oc3ccc(S(N)(=O)=O)cc3)c3cn(CC)nc3c2)cn1` [Example 1CU, 4-[4-(aminosulfonyl)phenoxy]-2-ethyl-N-(5-ethylpyrazin-2-yl)-2H-indazole-6-carboxamide], the concentration giving a half-maximal response (EC50) worked out at 1370 nM.

For the compound `Cn1cc2c(Oc3cnc(C(=O)N4CCC4)cn3)cc(C(=O)Nc3cnn(C)n3)cc2n1` [Example 1AH, 4-(5-(azetidine-1-carbonyl)pyrazin-2-yloxy)-2-methyl-N-(2-methyl-2H-1,2,3-triazol-4-yl)-2H-indazole-6-carboxamide], the EC50 was 36000 nM.

Still in this experiment, the particulars now being: Glucokinase EC50, Assay 2 matrix assay; 16 glucose concentrations; intrinsic EC50 = concentration affording a 50% reduction in the enzyme's Km (for glucose).
For `CCn1cc2c(Oc3cnc(C(=O)N4CCC4)c(F)c3)cc(C(=O)Nc3ccn(C)n3)cc2n1` [Example 1BA, 4-(6-(azetidine-1-carbonyl)-5-fluoropyridin-3-yloxy)-2-ethyl-N-(1-methyl-1H-pyrazol-3-yl)-2H-indazole-6-carboxamide], the EC50 was determined as 191 nM.

`Cc1cnc(NC(=O)c2cc(Oc3ccc(S(N)(=O)=O)cc3)c3cn(C)nc3c2)cn1` [Example 1AS, 4-[4-(aminosulfonyl)phenoxy]-2-methyl-N-(5-methylpyrazin-2-yl)-2H-indazole-6-carboxamide]: the half-maximal effective concentration (EC50) amounted to 2280 nM.
